Where a name gives a salt, the structure may show the parent alone.

Among the data in ChEMBL document CHEMBL2073944 (Eur J Pharmacol, 2003) are Ki and Activity values, retold here.

Common to all, as to assay type: functional, cell-based
Data set [1] deals with T1, Solute carrier family 22 member 11 (Homo sapiens, UniProt Q9NSA0).
T1 sequence (Q9NSA0 whole entry): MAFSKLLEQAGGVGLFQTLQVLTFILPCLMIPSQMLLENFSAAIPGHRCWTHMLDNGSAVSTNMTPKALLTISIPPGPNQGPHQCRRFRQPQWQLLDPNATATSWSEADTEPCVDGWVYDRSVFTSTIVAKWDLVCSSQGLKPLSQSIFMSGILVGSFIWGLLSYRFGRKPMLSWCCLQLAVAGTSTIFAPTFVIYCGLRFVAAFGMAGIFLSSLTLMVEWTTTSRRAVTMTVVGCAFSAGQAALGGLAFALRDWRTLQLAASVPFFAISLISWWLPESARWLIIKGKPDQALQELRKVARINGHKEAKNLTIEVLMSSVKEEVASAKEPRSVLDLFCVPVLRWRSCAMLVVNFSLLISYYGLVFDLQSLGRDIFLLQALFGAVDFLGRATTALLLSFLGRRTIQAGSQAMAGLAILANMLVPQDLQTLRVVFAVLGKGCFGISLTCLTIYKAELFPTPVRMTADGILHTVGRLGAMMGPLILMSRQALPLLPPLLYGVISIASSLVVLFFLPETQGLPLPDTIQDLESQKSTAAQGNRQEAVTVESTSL
Nature of the data set: TP_TRANSPORTER: uptake&inhibition of estrone sulfate in OAT4-S2 cells.

The target of data set [2] is T2, Organic anion transporter 3 (Homo sapiens, UniProt Q8TCC7).
T2 sequence (Q8TCC7 whole entry): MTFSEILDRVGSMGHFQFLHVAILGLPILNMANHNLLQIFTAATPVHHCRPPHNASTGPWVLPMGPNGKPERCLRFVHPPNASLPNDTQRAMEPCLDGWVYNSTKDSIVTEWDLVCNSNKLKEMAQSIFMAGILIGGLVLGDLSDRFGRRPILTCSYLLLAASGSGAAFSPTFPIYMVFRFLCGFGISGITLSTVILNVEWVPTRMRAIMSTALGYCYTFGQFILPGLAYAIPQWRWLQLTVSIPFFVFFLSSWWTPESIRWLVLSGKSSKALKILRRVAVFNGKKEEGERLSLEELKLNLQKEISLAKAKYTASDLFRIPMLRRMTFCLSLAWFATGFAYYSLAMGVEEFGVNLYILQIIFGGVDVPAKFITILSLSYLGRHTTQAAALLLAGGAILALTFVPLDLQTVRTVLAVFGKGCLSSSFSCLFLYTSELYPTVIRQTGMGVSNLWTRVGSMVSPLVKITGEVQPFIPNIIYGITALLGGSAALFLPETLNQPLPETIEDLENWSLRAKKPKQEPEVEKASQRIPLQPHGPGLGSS
Nature of the data set: TP_TRANSPORTER: uptake in OAT3-S2 cells. Conditions: mouse.

The target in data set [3] is T1, Solute carrier family 22 member 11. The experiment in a line: TP_TRANSPORTER: uptake in OAT4-S2 cells. Conditions: mouse.
Data set [4] shares this target. The experiment in a line: TP_TRANSPORTER: inhibition of E1S uptake (E1S: 5 uM, indoxyl sulfate:500 uM) in S2 cells expressing human-OAT4.

By Ki is commonly meant the equilibrium dissociation constant of an inhibitor or competing ligand from its target. A higher Ki goes with lower affinity. Consider `O=S(=O)(O)Oc1c[nH]c2ccccc12` [INDOXYL SULFATE], for which the Ki in data set [1] and in data set [4] was 181 µM each time. In addition, the Activity entry in data set [2] and in data set [3] was “substrate []” each time.
